# Assay results: patent publication US6781000B1, “Alpha-ketoamide inhibitors of 20S proteasome” (CV Theurapeutics, Inc., priority 1998, dated 2004)
# Target: T1, chymotrypsin-like activity of 20S proteasome (Bos taurus, UniProt Q2TBX6+Q32KL2)
# T1 construct: was purified to homogeneity from bovine brain according to published methods; from tissue; host or cells: bovine brain
# Test: 20S proteasome chymotryptic activity inhibition assay (Suc-Leu-Leu-Val-Tyr-AMC cleavage)
# Format: biochemical
# Conditions: 2 μg 20S proteasome from bovine brain, 50 μM fluorogenic substrate, 15 minutes at 37° C., pH7.5
# Method: Compounds of this invention prepared according to the method of Example 1 were tested as follows. The 20S catalytic subunit of the proteasome (also known as the multicatalytic proteinase complex) was purified to homogeneity from bovine brain according to published methods (Wilk S. and Orlowski,M 1983, 40 842 J.Neurochem). The chymotryptic activity of the complex is measured by the increase in fluorescence following cleavage of the substrate peptide succinyl-leucine-leucine-valine-tyrosine-7-amino-4methyl coumarin. The standard in vitro assay consists of 2 μg 20S proteasome, 0.1-100 μg/ml proteasome inhibitor in 200 μl 50 mM HEPES, containing 0.1% sodium dodecyl sulphate, pH7.5. The proteolytic reaction is initiated by the addition of 50 μM flourogenic peptide substrate and allowed to progress for 15 minutes at 37° C. The reaction is terminated by the addition of 100 μL of 100 mM acetate buffer, pH4.0. The rate of proteolysis is directly proportional to the amount of liberated aminomethylcoumarin which is measured by fluorescent spectroscopy (EX 370 nm, EM 430 nm).
Compound,IC50 for the inhibition of the chymotrypsin-like activity of 20S proteasome,IC50
CC(C)CC(NC(=O)C(=O)Cc1c[nH]c2ccccc12)C(=O)NC(CC(C)C)C(=O)NC(C)C(=O)O (stereo not drawn) [Compound 30],,> 20 µM
CC(C)CC(NC(=O)C(=O)Cc1c[nH]c2ccccc12)C(=O)NC(CC(C)C)C(=O)NC(C(=O)O)C(C)C (stereo not drawn) [Compound 32],>10 mg/L,
CCC(C)C(NC(=O)C(CC(C)C)NC(=O)C(CC(C)C)NC(=O)C(=O)Cc1c[nH]c2ccccc12)C(=O)O (stereo not drawn) [Compound 34],>10 mg/L,
CC(C)CC(NC(=O)C(=O)Cc1c[nH]c2ccccc12)C(=O)NC(CC(C)C)C(=O)NC(C)C(=O)O (stereo not drawn) [Compound 35],>10 mg/L,
CC(C)CC(NC(=O)C(=O)Cc1c[nH]c2ccccc12)C(=O)NC(CC(C)C)C(=O)NC(Cc1ccc(O)cc1)C(=O)O (stereo not drawn) [Compound 36],>10 mg/L,
CC(C)CC(NC(=O)CNC(=O)C(=O)Cc1c[nH]c2ccccc12)C(=O)NC(C(=O)O)C(C)C (stereo not drawn) [Compound 37],>10 mg/L,
CC(C)CC(NC(=O)CCNC(=O)C(=O)Cc1c[nH]c2ccccc12)C(=O)NC(C(=O)O)C(C)C (stereo not drawn) [Compound 38],>10 mg/L,
CCCCC(NC(=O)C(=O)Cc1c[nH]c2ccccc12)C(=O)NC(CC(C)C)C(=O)NC(C(=O)O)C(C)C (stereo not drawn) [Compound 39],>10 mg/L,
CC(C)CC(NC(=O)C(NC(=O)C(=O)Cc1c[nH]c2ccccc12)C(C)C)C(=O)NC(C(=O)O)C(C)C (stereo not drawn) [Compound 44],>10 mg/L,
CCCC(NC(=O)C(=O)Cc1c[nH]c2ccccc12)C(=O)NC(CC(C)C)C(=O)NC(C(=O)O)C(C)C (stereo not drawn) [Compound 45],>10 mg/L,
CC(C)CC(NC(=O)C(Cc1ccc(O)cc1)NC(=O)C(=O)Cc1c[nH]c2ccccc12)C(=O)NC(C(=O)O)C(C)C (stereo not drawn) [Compound 46],>10 mg/L,
CCC(C)C(NC(=O)C(=O)Cc1c[nH]c2ccccc12)C(=O)NC(CC(C)C)C(=O)NC(C(=O)O)C(C)C (stereo not drawn) [Compound 47],>10 mg/L,
CC(C)CC(NC(=O)C(CC1CCCCC1)NC(=O)C(=O)Cc1c[nH]c2ccccc12)C(=O)NC(C(=O)O)C(C)C (stereo not drawn) [Compound 48],>10 mg/L,
CC(C)CC(NC(=O)C(Cc1cccnc1)NC(=O)C(=O)Cc1c[nH]c2ccccc12)C(=O)NC(C(=O)O)C(C)C (stereo not drawn) [Compound 49],>10 mg/L,
CC(C)C[C@@H](NC(=O)[C@H](Cc1ccc(-c2ccccc2)cc1)NC(=O)C(=O)Cc1c[nH]c2ccccc12)C(=O)N[C@H](C(=O)O)C(C)C [Compound 51],,> 15.7 µM
CC(C)CC(NC(=O)CNC(=O)C(=O)Cc1c[nH]c2ccccc12)C(=O)NCC(=O)O (stereo not drawn) [Compound 52],>10 mg/L,
CC(C)CC(NC(=O)CCNC(=O)C(=O)Cc1c[nH]c2ccccc12)C(=O)NCC(=O)O (stereo not drawn) [Compound 53],,> 22.5 µM

Compound,IC50 for the inhibition of the chymotrypsin-like activity of 20S proteasome,IC50
CCCCC(NC(=O)C(=O)Cc1c[nH]c2ccccc12)C(=O)NC(CC(C)C)C(=O)NCC(=O)O (stereo not drawn) [Compound 54],>10 mg/L,
CC(C)CC(NC(=O)C(Cc1ccccc1)NC(=O)C(=O)Cc1c[nH]c2ccccc12)C(=O)NCC(=O)O (stereo not drawn) [Compound 55],>10 mg/L,
CC(C)CC(NC(=O)C(NC(=O)C(=O)Cc1c[nH]c2ccccc12)C(C)O)C(=O)NCC(=O)O (stereo not drawn) [Compound 56],>10 mg/L,
CC(C)C[C@@H](NC(=O)[C@H](CC(=O)O)NC(=O)C(=O)Cc1c[nH]c2ccccc12)C(=O)NCC(=O)O [Compound 58],,> 20.5 µM
CC(C)C[C@@H](NC(=O)[C@@H](NC(=O)C(=O)Cc1c[nH]c2ccccc12)C(C)C)C(=O)NCC(=O)O [Compound 59],,> 21.2 µM
CCCC(NC(=O)C(=O)Cc1c[nH]c2ccccc12)C(=O)NC(CC(C)C)C(=O)NCC(=O)O (stereo not drawn) [Compound 60],>10 mg/L,
CCC(C)C(NC(=O)C(=O)Cc1c[nH]c2ccccc12)C(=O)NC(CC(C)C)C(=O)NCC(=O)O (stereo not drawn) [Compound 62],>10 mg/L,
CC(C)CC(NC(=O)C(CC1CCCCC1)NC(=O)C(=O)Cc1c[nH]c2ccccc12)C(=O)NCC(=O)O (stereo not drawn) [Compound 63],>10 mg/L,
CC(C)CC(NC(=O)C(Cc1cccnc1)NC(=O)C(=O)Cc1c[nH]c2ccccc12)C(=O)NCC(=O)O (stereo not drawn) [Compound 64],>10 mg/L,
CC(C)CC(NC(=O)CNC(=O)C(=O)Cc1c[nH]c2ccccc12)C(=O)NC(C)C(=O)O (stereo not drawn) [Compound 67],>10 mg/L,
CC(C)CC(NC(=O)CCNC(=O)C(=O)Cc1c[nH]c2ccccc12)C(=O)NC(C)C(=O)O (stereo not drawn) [Compound 68],>10 mg/L,
CCCCC(NC(=O)C(=O)Cc1c[nH]c2ccccc12)C(=O)NC(CC(C)C)C(=O)NC(C)C(=O)O (stereo not drawn) [Compound 69],>10 mg/L,
CC(C)CC(NC(=O)C(Cc1ccccc1)NC(=O)C(=O)Cc1c[nH]c2ccccc12)C(=O)NC(C)C(=O)O (stereo not drawn) [Compound 70],>10 mg/L,
CC(C)CC(NC(=O)C(CC(=O)O)NC(=O)OCc1c[nH]c2ccccc12)C(=O)NC(C)C(=O)O (stereo not drawn) [Compound 73],>10 mg/L,
CC(C)CC(NC(=O)C(Cc1ccc(O)cc1)NC(=O)C(=O)Cc1c[nH]c2ccccc12)C(=O)NC(C)C(=O)O (stereo not drawn) [Compound 76],>10 mg/L,
CCC(C)C(NC(=O)C(=O)Cc1c[nH]c2ccccc12)C(=O)NC(CC(C)C)C(=O)NC(C)C(=O)O (stereo not drawn) [Compound 77],,> 20 µM
CC(C)CC(NC(=O)C(CC1CCCCC1)NC(=O)C(=O)Cc1c[nH]c2ccccc12)C(=O)NC(C)C(=O)O (stereo not drawn) [Compound 78],>10 mg/L,

# Continued, values first:
IC50 for the inhibition of the chymotrypsin-like activity of 20S proteasome,IC50,Compound
>10 mg/L,,CC(C)CC(NC(=O)C(CC(C)C)NC(=O)C(CC(C)C)NC(=O)C(=O)Cc1c[nH]c2ccccc12)C(=O)O (stereo not drawn) [Compound 28]
>10 mg/L,,CCC(C)C(NC(=O)C(CC(C)C)NC(=O)C(CC(C)C)NC(=O)C(=O)Cc1c[nH]c2ccccc12)C(=O)O (stereo not drawn) [Compound 29]
>10 mg/L,,CC(C)CC(NC(=O)C(=O)Cc1c[nH]c2ccccc12)C(=O)NC(CC(C)C)C(=O)NC(Cc1ccc(O)cc1)C(=O)O (stereo not drawn) [Compound 31]
>10 mg/L,,CC(C)CC(NC(=O)C(CC(C)C)NC(=O)C(CC(C)C)NC(=O)C(=O)Cc1c[nH]c2ccccc12)C(=O)O (stereo not drawn) [Compound 33]
,> 17.8 µM,CC(C)C[C@@H](NC(=O)[C@H](Cc1ccccc1)NC(=O)C(=O)Cc1c[nH]c2ccccc12)C(=O)N[C@H](C(=O)O)C(C)C [Compound 40]
>10 mg/L,,CC(C)CC(NC(=O)C(NC(=O)C(=O)Cc1c[nH]c2ccccc12)C(C)O)C(=O)NC(C(=O)O)C(C)C (stereo not drawn) [Compound 41]
>10 mg/L,,CC(C)CC(NC(=O)C(C)NC(=O)C(=O)Cc1c[nH]c2ccccc12)C(=O)NC(C(=O)O)C(C)C (stereo not drawn) [Compound 42]
>10 mg/L,,CC(C)CC(NC(=O)C(CC(=O)O)NC(=O)C(=O)Cc1c[nH]c2ccccc12)C(=O)NC(C(=O)O)C(C)C (stereo not drawn) [Compound 43]
>10 mg/L,,CC(C)CC(NC(=O)C(Cc1ccc2ccccc2c1)NC(=O)C(=O)Cc1c[nH]c2ccccc12)C(=O)NC(C(=O)O)C(C)C (stereo not drawn) [Compound 50]
>10 mg/L,,CC(C)CC(NC(=O)C(C)NC(=O)C(=O)Cc1c[nH]c2ccccc12)C(=O)NCC(=O)O (stereo not drawn) [Compound 57]
>10 mg/L,,CC(C)CC(NC(=O)C(Cc1ccc(O)cc1)NC(=O)C(=O)Cc1c[nH]c2ccccc12)C(=O)NCC(=O)O (stereo not drawn) [Compound 61]
>10 mg/L,,CC(C)CC(NC(=O)C(Cc1ccc2ccccc2c1)NC(=O)C(=O)Cc1c[nH]c2ccccc12)C(=O)NCC(=O)O (stereo not drawn) [Compound 65]
>10 mg/L,,CC(C)CC(NC(=O)C(Cc1ccc(-c2ccccc2)cc1)NC(=O)C(=O)Cc1c[nH]c2ccccc12)C(=O)NCC(=O)O (stereo not drawn) [Compound 66]
>10 mg/L,,CC(C)CC(NC(=O)C(NC(=O)C(=O)Cc1c[nH]c2ccccc12)C(C)O)C(=O)NC(C)C(=O)O (stereo not drawn) [Compound 71]
>10 mg/L,,CC(C)CC(NC(=O)C(C)NC(=O)OCc1c[nH]c2ccccc12)C(=O)NC(C)C(=O)O (stereo not drawn) [Compound 72]
>10 mg/L,,CC(C)CC(NC(=O)C(NC(=O)C(=O)Cc1c[nH]c2ccccc12)C(C)C)C(=O)NC(C)C(=O)O (stereo not drawn) [Compound 74]
,> 20.6 µM,CCCC(NC(=O)C(=O)Cc1c[nH]c2ccccc12)C(=O)NC(CC(C)C)C(=O)NC(C)C(=O)O (stereo not drawn) [Compound 75]
